Results reported in patent publication US12134610B2, “Somatostatin subtype-2 receptor (SST2R) targeted therapeutics and uses thereof” (priority 2022, dated 2024).
pEC50: −log10 of the molar value. Starred links: 1 amine or outer side, 2 acyl side, 3 side chain; linkers in the order of their positions; H or OH if unused. Non-standard residues stand in square brackets, D forms with d. Residues, ends and D or L forms follow the SMILES beside them. *: point of attachment. X4 = Cc1cc(F)cc(-c2cnc(NCCNC(=O)CCOCCOCCOCCOCCC(=O)*)c(-c3nc4ccc(Cl)cc4[nH]3)c2N2CCC(N)CC2)c1; X1 = Cc1cc(F)cc(-c2cnc(NCCNC(=O)CCOCCC(=O)*)c(-c3nc4ccc(Cl)cc4[nH]3)c2N2CCC(N)CC2)c1; Dolaproine = CO[C@@H]([C@@H]1CCCN1)[C@@H](C)C(=O)O; Dil = CC[C@H](C)[C@H](NC)[C@@H](CC(=O)O)OC; PABC = O=C(OCc1ccc(N[*:1])cc1)[*:2]; X2 = C[C@@H](N*)[C@@H](O)c1ccccc1; Cit = NC(=O)NCCC[C@H](N)C(=O)O; NMeV = CN[C@H](C(=O)O)C(C)C

Key:
Type in all cases: cell-based
[1] = target: T1, human somatostatin receptor subtype 2 (Homo sapiens, UniProt P30874); assay: Functional cAMP assay for SSTR2 agonists (HTRF) in CHO-K1 cells; conditions: CHO-K1 cells stably expressing human SST2, 20 min; read-out: hSST2 cAMP Avg EC50
T1 construct: expressed in transfected cells
T1 sequence (P30874 whole entry): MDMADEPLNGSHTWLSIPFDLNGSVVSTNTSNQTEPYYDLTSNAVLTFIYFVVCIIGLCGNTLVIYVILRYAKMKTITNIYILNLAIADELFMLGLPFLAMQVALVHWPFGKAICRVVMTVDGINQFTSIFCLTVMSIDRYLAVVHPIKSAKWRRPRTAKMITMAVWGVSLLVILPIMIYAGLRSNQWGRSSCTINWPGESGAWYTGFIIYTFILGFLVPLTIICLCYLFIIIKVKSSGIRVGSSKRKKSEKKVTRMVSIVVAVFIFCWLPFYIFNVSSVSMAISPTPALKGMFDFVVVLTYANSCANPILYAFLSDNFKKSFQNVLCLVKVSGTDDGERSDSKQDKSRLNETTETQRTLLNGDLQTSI
In short: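 Agonism scored as loss of NKH477 (1.6 μM)-driven cAMP, with IBMX present, after 20 min, 37° C. exposure of stably transfected CHO-K1 cells to compound dilutions (typically 0-10,000 nM). Lysates read by time-resolved FRET; cAMP interpolated from standard curve and EC50 derived.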

SST2 = target: T2, SST2 (Homo sapiens, UniProt P30874); assay: PathHunter CHO-K1 SST2 internalization assay; conditions: PathHunter CHO-K1 SST2, 90 min; read-out: Internalization EC50
T2 construct: host or cells: PathHunter CHO-K1 SST2 cells
T2 sequence (P30874 whole entry): as above
In short: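 IC50 comes from four-parameter curves on background-corrected duplicates of Beta-Glo luminescence, read after 60 min at room temperature in the dark. Before that, CHO-K1 SST2 internalization cells (48 h post-seeding) received SMDC as eleven threefold dilutions, 10 uM highest final, for 90 min at 37 C.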

[2] = test system: NCI-H524 (ATCC) human small cell lung cancer cells; conditions: 2 h
In short: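 CellTiter-Glo luminescence after a 2 h SMDC pulse (top dose 1 uM, 2-fold dilutions, 11 points), medium wash, then 70 h recovery. Cells were seeded at 5,000/well and dosed 24 h later. % inhibition vs control gave IC50 via four-parameter fit.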

| Compound | pEC50 [1] | pEC50 (SST2) | pEC50 [2] |
| --- | --- | --- | --- |
| CCC(C)C(C(CC(=O)N1CCCC1C(OC)C(C)C(=O)NC(C)C(O)c1ccccc1)OC)N(C)C(=O)C(NC(=O)C(C(C)C)N(C)C(=O)OCc1ccc(NC(=O)[C@H](CCCNC(N)=O)NC(=O)[C@@H](NC(=O)CCOCCOCCOCCOCCC(=O)NCCNc2ncc(-c3cc(C)cc(F)c3)c(N3CCC(NC)CC3)c2-c2nc3ccc(Cl)cc3[nH]2)C(C)C)cc1)C(C)C (stereo in doubt) [Compound 41] | 9.32 | 7.61 | 7.56 |
| CC[C@H](C)[C@@H]([C@@H](CC(=O)N1CCC[C@H]1[C@H](OC)[C@@H](C)C(=O)N[C@H](C)[C@@H](O)c1ccccc1)OC)N(C)C(=O)[C@@H](NC(=O)[C@H](C(C)C)N(C)C(=O)OCc1ccc(NC(=O)[C@H](CCCNC(N)=O)NC(=O)[C@@H](NC(=O)[C@H](CS(=O)(=O)O)NC(=O)CCOCCC(=O)NCCNc2ncc(-c3cc(C)cc(F)c3)c(N3CCC(N)CC3)c2-c2nc3ccc(Cl)cc3[nH]2)C(C)C)cc1C(=O)NCCN)C(C)C [Compound 99] | 9.72 | 8.55 | 8.34 |
| CC[C@H](C)[C@@H]([C@@H](CC(=O)N1CCC[C@H]1[C@H](OC)[C@@H](C)C(=O)N[C@H](C)[C@@H](O)c1ccccc1)OC)N(C)C(=O)[C@@H](NC(=O)[C@H](C(C)C)N(C)C(=O)OCc1ccc(NC(=O)[C@H](CCCNC(N)=O)NC(=O)[C@@H](NC(=O)CN2CCN(CC(=O)O)CCN(CC(=O)NCCNc3ncc(-c4cc(C)cc(F)c4)c(N4CCC(N)CC4)c3-c3nc4ccc(Cl)cc4[nH]3)CC2)C(C)C)cc1)C(C)C [Compound 33] | 9.20 | 7.46 | 6.56 |
| CC[C@H](C)[C@@H]([C@@H](CC(=O)N1CCC[C@H]1[C@H](OC)[C@@H](C)C(=O)N[C@H](C)[C@@H](O)c1ccccc1)OC)N(C)C(=O)[C@@H](NC(=O)[C@H](C(C)C)N(C)C(=O)OCc1ccc(NC(=O)[C@H](CCCNC(N)=O)NC(=O)[C@@H](NC(=O)[C@H](CS(=O)(=O)O)NC(=O)CCOCCOCCOCCOCCC(=O)NCCNc2ncc(-c3cc(C)cc(F)c3)c(N3CCC(N)CC3)c2-c2nc3ccc(Cl)cc3[nH]2)C(C)C)cc1C(=O)NCCN)C(C)C [Compound 100] | 9.85 | 8.48 | 8.19 |
| CC[C@H](C)[C@@H]([C@@H](CC(=O)N1CCC[C@H]1[C@H](OC)[C@@H](C)C(=O)N[C@H](C)[C@@H](O)c1ccccc1)OC)N(C)C(=O)[C@@H](NC(=O)[C@H](C(C)C)N(C)C(=O)OCc1ccc(NC(=O)[C@H](CCCNC(N)=O)NC(=O)[C@@H](NC(=O)[C@H](CCC(N)=O)NC(=O)CCOCCOCCOCCOCCC(=O)NCCNc2ncc(-c3cc(C)cc(F)c3)c(N3CCC(N)CC3)c2-c2nc3ccc(Cl)cc3[nH]2)C(C)C)cc1C(=O)NC)C(C)C [Compound 60] | 10.00 | 7.89 | 7.46 |
| CC[C@H](C)[C@@H]([C@@H](CC(=O)N1CCC[C@H]1[C@H](OC)[C@@H](C)C(=O)N[C@@H](Cc1ccccc1)C(=O)O)OC)N(C)C(=O)[C@@H](NC(=O)[C@H](C(C)C)N(C)C(=O)OCc1ccc(NC(=O)[C@H](CCCNC(N)=O)NC(=O)[C@@H](NC(=O)CCOCCOCCOCCOCCC(=O)NCCNc2ncc(-c3cc(C)cc(F)c3)c(N3CCC(N)CC3)c2-c2nc3ccc(Cl)cc3[nH]2)C(C)C)cc1)C(C)C [Compound 42] (X4-V[Cit][PABC][NMeV]V[Dil][Dolaproine]F-OH) | 9.92 | 8.07 | 7.24 |
| CC[C@H](C)[C@@H]([C@@H](CC(=O)N1CCC[C@H]1[C@H](OC)[C@@H](C)C(=O)N[C@@H](Cc1ccccc1)C(=O)O)OC)N(C)C(=O)[C@@H](NC(=O)[C@H](C(C)C)N(C)C(=O)CCOCCOCCOCCOCCC(=O)NCCNc1ncc(-c2cc(C)cc(F)c2)c(N2CCC(N)CC2)c1-c1nc2ccc(Cl)cc2[nH]1)C(C)C [Compound 11] | 10.07 | 7.87 | 6.98 |
| CC[C@H](C)[C@@H]([C@@H](CC(=O)N1CCC[C@H]1[C@H](OC)[C@@H](C)C(=O)N[C@H](C)[C@@H](O)c1ccccc1)OC)N(C)C(=O)[C@@H](NC(=O)[C@H](C(C)C)N(C)C(=O)OCc1ccc(NC(=O)[C@H](CCCNC(N)=O)NC(=O)[C@@H](NC(=O)[C@H](CCC(=O)O)NC(=O)CCOCCC(=O)NCCNc2ncc(-c3cc(C)cc(F)c3)c(N3CCC(N)CC3)c2-c2nc3ccc(Cl)cc3[nH]2)C(C)C)c(O[C@@H]2O[C@H](C(=O)O)[C@@H](O)[C@H](O)[C@H]2O)c1)C(C)C [Compound 143] | 9.85 | 8.52 | 7.00 |
| CC[C@H](C)[C@@H]([C@@H](CC(=O)N1CCC[C@H]1[C@H](OC)[C@@H](C)C(=O)N[C@H](C)[C@@H](O)c1ccccc1)OC)N(C)C(=O)[C@@H](NC(=O)[C@H](C(C)C)N(C)C(=O)OCc1ccc(NC(=O)[C@H](CCCNC(N)=O)NC(=O)[C@@H](NC(=O)CCOCCC(=O)NCCNc2ncc(-c3cc(C)cc(F)c3)c(N3CCC(N)CC3)c2-c2nc3ccc(Cl)cc3[nH]2)C(C)C)c(O[C@@H]2O[C@H](C(=O)O)[C@@H](O)[C@H](O)[C@H]2O)c1)C(C)C [Compound 132] | 9.70 | 8.24 | 7.66 |
| CC[C@H](C)[C@@H]([C@@H](CC(=O)N1CCC[C@H]1[C@H](OC)[C@@H](C)C(=O)N[C@H](C)[C@@H](O)c1ccccc1)OC)N(C)C(=O)[C@@H](NC(=O)[C@H](C(C)C)N(C)C(=O)OCc1ccc(NC(=O)[C@H](CCCNC(N)=O)NC(=O)[C@@H](NC(=O)CCOCCC(=O)NCCNc2ncc(-c3cc(C)cc(F)c3)c(N3CCC(N)CC3)c2-c2nc3ccc(Cl)cc3[nH]2)C(C)C)cc1C(N)=O)C(C)C [Compound 122] | 9.74 | 8.42 | 8.10 |
| CC[C@@H](C)[C@H]([C@H](CC(=O)N1CCC[C@@H]1[C@@H](OC)[C@H](C)C(=O)N[C@@H](C)[C@H](O)c1ccccc1)OC)N(C)C(=O)C(NC(=O)[C@@H](C(C)C)N(C)C(=O)OCc1ccc(NC(=O)[C@H](CCCNC(N)=O)NC(=O)[C@@H](NC(=O)CCOCCNC(=O)[C@H](CS(=O)(=O)O)NC(=O)CCOCCOCCOCCOCCC(=O)NCCNc2ncc(-c3cc(C)cc(F)c3)c(N3CCC(N)CC3)c2-c2nc3ccc(Cl)cc3[nH]2)C(C)C)cc1)C(C)C (stereo partly drawn) [Compound 44] | 10.05 | 7.76 | 6.99 |
| CC[C@H](C)[C@@H]([C@@H](CC(=O)N1CCC[C@H]1[C@H](OC)[C@@H](C)C(=O)N[C@H](C)[C@@H](O)c1ccccc1)OC)N(C)C(=O)[C@@H](NC(=O)[C@H](C(C)C)N(C)C(=O)OCc1ccc(NC(=O)[C@H](CCCNC(N)=O)NC(=O)[C@@H](NC(=O)CCOCCOCCOCCC(=O)NCCNc2ncc(-c3cc(C)cc(F)c3)c(N3CCC(N)CC3)c2-c2nc3ccc(Cl)cc3[nH]2)C(C)C)c(O[C@@H]2O[C@H](C(=O)O)[C@@H](O)[C@H](O)[C@H]2O)c1)C(C)C [Compound 138] | 9.80 | 8.28 | 7.92 |
| CC[C@H](C)[C@@H]([C@@H](CC(=O)N1CCC[C@H]1[C@H](OC)[C@@H](C)C(=O)N[C@H](C)[C@@H](O)c1ccccc1)OC)N(C)C(=O)[C@@H](NC(=O)[C@H](C(C)C)N(C)C(=O)OCc1ccc(NC(=O)[C@H](CCCNC(N)=O)NC(=O)[C@@H](NC(=O)[C@@H](CCC(=O)O)NC(=O)CCOCCC(=O)NCCNc2ncc(-c3cc(C)cc(F)c3)c(N3CCC(N)CC3)c2-c2nc3ccc(Cl)cc3[nH]2)C(C)C)cc1)C(C)C [Compound 102] (X1-[dE]V[Cit][PABC][NMeV]V[Dil][Dolaproine]-X2) | 10.17 | 7.72 | 6.89 |
